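Compound exposure: 48 hours, 5 concentrations, 96-well plates. GI50 = concentration required for 50% inhibition of growth. At the TGI there is no net growth.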
Tests used:
Assay in all cases: DTP human tumour cell line panel, 48 h
[1] = system: A498 renal
[2] = system: SNB-75 CNS
[3] = system: NCI-H460 lung
[4] = system: 786-0 renal
[5] = system: RPMI-8226 leukemia
[6] = system: OVCAR-5 ovarian
[7] = system: UACC-62 melanoma
[8] = system: UO-31 renal
[9] = system: HCT-15 colon
[10] = system: SR leukemia
[11] = system: SF-295 CNS
[12] = system: DU-145 prostate
[13] = system: NCI-H522 lung
[14] = system: NCI-H226 lung
[15] = system: HCC-2998 colon
[16] = system: SNB-19 CNS
[17] = system: IGROV1 ovarian
[18] = system: K-562 leukemia
[19] = system: ACHN renal
[20] = system: OVCAR-4 ovarian
[21] = system: HCT-116 colon
[22] = system: M14 melanoma
[23] = system: A549 NSCLC
[24] = system: UACC-257 melanoma
[25] = system: EKVX NSCLC
[26] = system: SK-MEL-2 melanoma
[27] = system: SK-MEL-5 melanoma
[28] = system: OVCAR-3 ovarian
[29] = system: SF-539 CNS
[30] = system: SK-MEL-28 melanoma
[31] = system: KM12 colon
[32] = system: T-47D breast
[33] = system: U251 CNS
[34] = system: MALME-3M melanoma
[35] = system: HS 578T breast
[36] = system: SF-268 CNS
[37] = system: TK-10 renal
[38] = system: HOP-62 NSCLC
[39] = system: SW-620 colon
[40] = system: HT29 colon
[41] = system: NCI-H23 lung
[42] = system: OVCAR-8 ovarian
[43] = system: BT-549 breast
[44] = system: SK-OV-3 ovarian
[45] = system: RXF 393 renal
[46] = system: MOLT-4 leukemia
[47] = system: NCI/ADR-RES ovarian
[48] = system: LOX IMVI melanoma
[49] = system: SN12C renal
[50] = system: CAKI-1 renal
[51] = system: CCRF-CEM leukemia
[52] = system: COLO 205 colon
[53] = system: HL-60(TB) leukemia
[54] = system: MDA-MB-435
[55] = system: PC-3 prostate
[56] = system: MCF7 breast
[57] = system: MDA-MB-231 breast

With `COc1cc2c(c(OC)c1OC)-c1ccc(NNC(N)=S)c(=O)cc1[C@@H](NC(C)=O)CC2` as the compound, how does the GI50 [1] read?
Its GI50 is 0.93 µM.

What about the TGI [1] of the same compound?
The TGI was over 21.1 µM.

And the TGI [2]?
The TGI was over 100 µM.

What about the GI50 [3] of the same compound?
The GI50 was 0.397 µM.

What about the GI50 [4] of the same compound?
The GI50 was 0.867 µM.

And the TGI [4]?
Its TGI is over 100 µM.

And the GI50 [5]?
Its GI50 is 0.39 µM.

What about the TGI [5] of the same compound?
Its TGI is over 29.4 µM.

What about the GI50 [6] of the same compound?
The GI50 was 7.21 µM.

What about the TGI [6] of the same compound?
Its TGI is over 100 µM.

What about the GI50 [7] of the same compound?
The GI50 was 0.666 µM.

And the TGI [7]?
The TGI was over 100 µM.

And the GI50 [8]?
Its GI50 is over 25.9 µM.

What about the TGI [8] of the same compound?
Its TGI is over 100 µM.

What about the GI50 [9] of the same compound?
The GI50 was 4.23 µM.

And the TGI [9]?
The TGI was over 100 µM.

And the GI50 [10]?
Its GI50 is 0.279 µM.

And the TGI [10]?
The TGI was over 100 µM.

What about the GI50 [11] of the same compound?
Its GI50 is 0.63 µM.

And the TGI [11]?
Its TGI is over 100 µM.

What about the GI50 [12] of the same compound?
Its GI50 is 0.341 µM.

And the TGI [12]?
Its TGI is 1.44 µM.

And the GI50 [13]?
The GI50 was 0.55 µM.

What about the TGI [13] of the same compound?
The TGI was over 100 µM.

And the TGI [14]?
Its TGI is over 100 µM.

What about the GI50 [15] of the same compound?
Its GI50 is 0.263 µM.

And the GI50 [16]?
The GI50 was 0.558 µM.

What about the TGI [16] of the same compound?
Its TGI is over 100 µM.

And the GI50 [17]?
The GI50 was 1.18 µM.

And the TGI [17]?
Its TGI is over 100 µM.

And the GI50 [18]?
Its GI50 is 0.348 µM.

And the TGI [18]?
Its TGI is over 100 µM.

And the GI50 [19]?
The GI50 was 7.19 µM.

What about the TGI [19] of the same compound?
Its TGI is over 100 µM.

And the GI50 [20]?
The GI50 was 0.625 µM.

And the TGI [20]?
The TGI was over 100 µM.

What about the GI50 [21] of the same compound?
The GI50 was 0.348 µM.

What about the TGI [21] of the same compound?
The TGI was over 32.6 µM.

What about the GI50 [22] of the same compound?
Its GI50 is 0.284 µM.

And the TGI [22]?
The TGI was 0.735 µM.

What about the GI50 [23] of the same compound?
Its GI50 is 3.12 µM.

What about the TGI [23] of the same compound?
The TGI was over 100 µM.

And the TGI [24]?
Its TGI is over 100 µM.

What about the GI50 [25] of the same compound?
Its GI50 is 3.67 µM.

And the TGI [25]?
Its TGI is over 100 µM.

What about the TGI [26] of the same compound?
The TGI was over 100 µM.

And the GI50 [27]?
The GI50 was 0.345 µM.

And the TGI [27]?
The TGI was 2.52 µM.

What about the GI50 [28] of the same compound?
Its GI50 is 0.238 µM.

What about the TGI [28] of the same compound?
The TGI was 0.623 µM.

What about the GI50 [29] of the same compound?
The GI50 was 0.338 µM.

What about the TGI [29] of the same compound?
The TGI was 4.31 µM.

What about the GI50 [30] of the same compound?
The GI50 was 0.777 µM.

What about the TGI [30] of the same compound?
Its TGI is over 100 µM.

What about the GI50 [31] of the same compound?
Its GI50 is 0.301 µM.

What about the TGI [31] of the same compound?
The TGI was 1.92 µM.

What about the GI50 [32] of the same compound?
The GI50 was over 100 µM.

And the TGI [32]?
The TGI was over 100 µM.

And the GI50 [33]?
The GI50 was 0.415 µM.

What about the TGI [33] of the same compound?
The TGI was over 100 µM.

What about the GI50 [34] of the same compound?
The GI50 was 2.8 µM.

And the TGI [34]?
Its TGI is over 100 µM.

And the TGI [35]?
The TGI was over 100 µM.

What about the GI50 [36] of the same compound?
Its GI50 is 0.509 µM.

And the TGI [36]?
The TGI was over 100 µM.

What about the GI50 [37] of the same compound?
Its GI50 is over 26 µM.

And the TGI [37]?
Its TGI is over 100 µM.

And the GI50 [38]?
Its GI50 is 0.739 µM.

And the TGI [38]?
Its TGI is over 100 µM.

What about the GI50 [39] of the same compound?
Its GI50 is 0.365 µM.

What about the TGI [39] of the same compound?
Its TGI is over 100 µM.

And the GI50 [40]?
Its GI50 is 0.365 µM.

What about the TGI [40] of the same compound?
Its TGI is over 100 µM.

What about the GI50 [41] of the same compound?
Its GI50 is 0.414 µM.

What about the TGI [41] of the same compound?
The TGI was over 49.9 µM.

What about the GI50 [42] of the same compound?
Its GI50 is 0.863 µM.

And the TGI [42]?
Its TGI is over 100 µM.

And the GI50 [43]?
Its GI50 is 0.37 µM.

And the GI50 [44]?
The GI50 was 0.817 µM.

And the TGI [44]?
Its TGI is over 100 µM.

And the GI50 [45]?
Its GI50 is 0.298 µM.

And the TGI [45]?
Its TGI is 0.747 µM.

What about the GI50 [46] of the same compound?
Its GI50 is 0.568 µM.

What about the TGI [46] of the same compound?
The TGI was over 100 µM.

And the GI50 [47]?
The GI50 was 19.4 µM.

What about the TGI [47] of the same compound?
The TGI was over 100 µM.

And the GI50 [48]?
The GI50 was 0.687 µM.

And the TGI [48]?
Its TGI is over 100 µM.

And the GI50 [49]?
The GI50 was 0.881 µM.

And the TGI [49]?
Its TGI is over 100 µM.

And the GI50 [50]?
Its GI50 is 11.7 µM.

What about the TGI [50] of the same compound?
Its TGI is over 100 µM.

And the GI50 [51]?
Its GI50 is 0.434 µM.

And the TGI [51]?
The TGI was over 100 µM.

What about the GI50 [52] of the same compound?
The GI50 was 0.244 µM.

And the TGI [52]?
The TGI was 0.529 µM.

And the GI50 [53]?
Its GI50 is 0.226 µM.

And the GI50 [54]?
The GI50 was 0.255 µM.

What about the GI50 [55] of the same compound?
The GI50 was 0.29 µM.

And the TGI [55]?
Its TGI is over 100 µM.

And the GI50 [56]?
The GI50 was 0.372 µM.

And the TGI [56]?
The TGI was over 100 µM.

What about the GI50 [57] of the same compound?
The GI50 was 0.327 µM.

And the TGI [57]?
The TGI was 3.52 µM.

From PubChem BioAssay (NCI)
